Data from patent publication US8217013B2, “Polyene diester antibiotics” (priority 2007, dated 2012).
Where two headings read alike, the source gives them in different places.

Key:
Assay in all cases: Test of antibacterial activity in vitro (bacteria-inhibition zone)
Assay type in all cases: cell-based
Candida albicans = conditions: for zone of inhibition at 5.6 µg/mL: Candida albicans
Excerpt: (§1) Test of Antibacterial Activity In Vitro
(§2) Experiment drugs: the polyene diester compounds prepared by examples 1-12
(§3) Control drugs: amphotericin B (standard product) • mycostatin (standard product) • natamycin (standard product)
2.1 Preparation of Candida albicans suspension: PHARMACOPOEIA OF THE PEOPLES REPUBLIC OF CHINA, second part, 2005 edition, appendix p 81-84.
(§4) Taking appropriate amount of the above mentioned amphotericin B, mycostatin, natamycin and the polyene diester compounds prepared by examples 1-8 and 10-12, dissolving in a little dimethyl sulfoxide respectively, using pH7 phosphate buffer to dilute into solution which is equivalent to contain amphotericin B, mycostatin, natamycin 280 Units per milliliter, taking 1 ml and using pH7 phosphate buffer to quantitatively dilute into solution which is equivalent to contain amphotericin B 1.4 μg/ml and 2.8 μg/ml, and is equivalent to contain 5.6 μg/ml of mycostatin and natamycin.
(§5) In addition, preparing the solution according to the same method, adding 40% defibered sheep serum, using pH7 phosphate buffer to quantitatively dilute into unit solution which is equivalent to contain amphotericin B 1.4 μg/ml and 2.8 μg/ml, and is equivalent to contain 5.6 μg/ml of mycostatin and natamycin. Testing according to PHARMACOPOEIA OF THE PEOPLES REPUBLIC OF CHINA, second part, 2005 edition, appendix XIA The Antibiotics Microorganism Test.
(§6) Medium: Improved Martin Agar Medium, PHARMACOPOEIA OF THE PEOPLES REPUBLIC OF CHINA, second part, 2005 edition, appendix p 84.
Test method: Double-plate counting method; […] bacteria bed 15 ml to replace the double layers, culture temperature: 37° C., time: 24 h; strain concentration: 1% […]

Saccharomyces cerevisiae = conditions: for zone of inhibition at 5.6 µg/mL: Saccharomyces cerevisiae
Excerpt: as §1, §2, §3
2.2 Preparation of Saccharomyces cerevisiae suspension: PHARMACOPOEIA OF THE PEOPLES REPUBLIC OF CHINA, second part, 2005 edition, appendix p 80, p 83.
as §4, §5, §6
(§7) Test method: Double-plate counting method; […] bacteria bed 15 ml to replace the double layers, culture temperature: 37° C., time: 24 h; strain concentration: 1%
(§8) Medium: Modified Martin Broth Medium

Candida mycoderma = test system: Candida mycoderma
Excerpt: as §1, §2, §3
2.3 Preparation of Candida mycoderrna suspension: the method is as same as preparation of Saccharomyces cerevisiae suspension
as §4, §5, §6, §7, §8

[1] = 0 h, 5.6 μg/ml after conversion, no serum
[2] = 0 h, 5.6 μg/ml after conversion, serum added (40% defibered sheep serum)
[3] = 6 h, 5.6 μg/ml after conversion, no serum
[4] = 6 h, 5.6 μg/ml after conversion, serum added (40% defibered sheep serum)
[5] = 24 h, 5.6 μg/ml after conversion, no serum
[6] = 24 h, 5.6 μg/ml after conversion, serum added (40% defibered sheep serum)
[7] = 48 h, 5.6 μg/ml after conversion, no serum
[8] = 48 h, 5.6 μg/ml after conversion, serum added (40% defibered sheep serum)
[9] = 0 h, 2.8 μg/ml after conversion, no serum
[10] = 0 h, 2.8 μg/ml after conversion, serum added (40% defibered sheep serum)
[11] = 6 h, 2.8 μg/ml after conversion, no serum
[12] = 24 h, 2.8 μg/ml after conversion, no serum
[13] = 48 h, 2.8 μg/ml after conversion, no serum

| Compound | diameter of the bacteria-inhibition zone, Candida albicans 0 h (Candida albicans; [1]) | diameter of the bacteria-inhibition zone, Candida albicans 0 h (Candida albicans; [2]) | diameter of the bacteria-inhibition zone, Candida albicans 6 h (Candida albicans; [3]) | diameter of the bacteria-inhibition zone, Candida albicans 6 h (Candida albicans; [4]) | diameter of the bacteria-inhibition zone, Candida albicans 24 h (Candida albicans; [5]) | diameter of the bacteria-inhibition zone, Candida albicans 24 h (Candida albicans; [6]) | diameter of the bacteria-inhibition zone, Candida albicans 48 h (Candida albicans; [7]) | diameter of the bacteria-inhibition zone, Candida albicans 48 h (Candida albicans; [8]) | diameter of the bacteria-inhibition zone, Saccharomyces cerevisiae 0 h (Saccharomyces cerevisiae; [1]) | diameter of the bacteria-inhibition zone, Saccharomyces cerevisiae 0 h (Saccharomyces cerevisiae; [2]) | diameter of the bacteria-inhibition zone, Saccharomyces cerevisiae 6 h (Saccharomyces cerevisiae; [3]) | diameter of the bacteria-inhibition zone, Saccharomyces cerevisiae 24 h (Saccharomyces cerevisiae; [5]) | diameter of the bacteria-inhibition zone, Saccharomyces cerevisiae 48 h (Saccharomyces cerevisiae; [7]) | diameter of the bacteria-inhibition zone, Candida mycoderma 0 h (Candida mycoderma; [1]) | diameter of the bacteria-inhibition zone, Candida mycoderma 0 h (Candida mycoderma; [2]) | diameter of the bacteria-inhibition zone, Candida mycoderma 6 h (Candida mycoderma; [3]) | diameter of the bacteria-inhibition zone, Candida mycoderma 24 h (Candida mycoderma; [5]) | diameter of the bacteria-inhibition zone, Candida mycoderma 48 h (Candida mycoderma; [7]) | diameter of the bacteria-inhibition zone, Saccharomyces cerevisiae 6 h (Saccharomyces cerevisiae; [4]) | also measured |
| --- | --- | --- | --- | --- | --- | --- | --- | --- | --- | --- | --- | --- | --- | --- | --- | --- | --- | --- | --- | --- |
| mycostatin ethyl acetate | + (7-9 mm: +) | + (7-9 mm: +) | + (7-9 mm: +) | + (7-9 mm: +) | + (7-9 mm: +) | + (7-9 mm: +) | + (7-9 mm: +) | + (7-9 mm: +) | ++ (9-12 mm: ++) | ++ (9-12 mm: ++) | ++ (9-12 mm: ++) | ++ (9-12 mm: ++) | ++ (9-12 mm: ++) | ++ (9-12 mm: ++) | ++ (9-12 mm: ++) | ++ (9-12 mm: ++) | ++ (9-12 mm: ++) | ++ (9-12 mm: ++) | – | – |
| CC(C)OC(=O)OC(C)OC(=O)C1C(O)CC2(O)CC(O)CC(O)C(O)CCC(O)CC(O)CC(=O)OC(C)C(C)C(O)C(C)C=CC=CC=CC=CC=CC=CC=CC(OC3OC(C)C(O)C(N)C3O)CC1O2 (stereo not shown) [amphotericin B isopropoxycarbonyloxyethyl ester] | – | – | – | – | – | – | – | – | – | – | – | – | – | – | – | – | – | – | – | diameter of the bacteria-inhibition zone, Candida albicans 0 h (Candida albicans; [9]): ++ (9-12 mm: ++); diameter of the bacteria-inhibition zone, Candida albicans 0 h (Candida albicans; [10]): ++ (9-12 mm: ++); diameter of the bacteria-inhibition zone, Candida albicans 6 h (Candida albicans; [11]): ++ (9-12 mm: ++); diameter of the bacteria-inhibition zone, Candida albicans 24 h (Candida albicans; [12]): ++ (9-12 mm: ++); diameter of the bacteria-inhibition zone, Candida albicans 48 h (Candida albicans; [13]): ++ (9-12 mm: ++); diameter of the bacteria-inhibition zone, Saccharomyces cerevisiae 0 h (Saccharomyces cerevisiae; [9]): + (7-9 mm: +); diameter of the bacteria-inhibition zone, Saccharomyces cerevisiae 0 h (Saccharomyces cerevisiae; [10]): ++ (9-12 mm: ++); diameter of the bacteria-inhibition zone, Saccharomyces cerevisiae 6 h (Saccharomyces cerevisiae; [11]): + (7-9 mm: +); diameter of the bacteria-inhibition zone, Saccharomyces cerevisiae 24 h (Saccharomyces cerevisiae; [12]): + (7-9 mm: +); diameter of the bacteria-inhibition zone, Saccharomyces cerevisiae 48 h (Saccharomyces cerevisiae; [13]): + (7-9 mm: +); diameter of the bacteria-inhibition zone, Candida mycoderma 0 h (Candida mycoderma; [9]): ++ (9-12 mm: ++); diameter of the bacteria-inhibition zone, Candida mycoderma 0 h (Candida mycoderma; [10]): ++ (9-12 mm: ++); diameter of the bacteria-inhibition zone, Candida mycoderma 6 h (Candida mycoderma; [11]): ++ (9-12 mm: ++); diameter of the bacteria-inhibition zone, Candida mycoderma 24 h (Candida mycoderma; [12]): ++ (9-12 mm: ++); diameter of the bacteria-inhibition zone, Candida mycoderma 48 h (Candida mycoderma; [13]): ++ (9-12 mm: ++) |
| Natamycin methyl pivalate | + (7-9 mm: +) | + (7-9 mm: +) | + (7-9 mm: +) | ++ (9-12 mm: ++) | + (7-9 mm: +) | ++ (9-12 mm: ++) | + (7-9 mm: +) | ++ (9-12 mm: ++) | + (7-9 mm: +) | + (7-9 mm: +) | + (7-9 mm: +) | + (7-9 mm: +) | + (7-9 mm: +) | ++ (9-12 mm: ++) | ++ (9-12 mm: ++) | ++ (9-12 mm: ++) | ++ (9-12 mm: ++) | ++ (9-12 mm: ++) | ++ (9-12 mm: ++) | – |
| mycostatin methyl pivalate | + (7-9 mm: +) | + (7-9 mm: +) | + (7-9 mm: +) | + (7-9 mm: +) | + (7-9 mm: +) | + (7-9 mm: +) | + (7-9 mm: +) | + (7-9 mm: +) | ++ (9-12 mm: ++) | + (7-9 mm: +) | ++ (9-12 mm: ++) | ++ (9-12 mm: ++) | ++ (9-12 mm: ++) | – | + (7-9 mm: +) | – | – | – | ++ (9-12 mm: ++) | diameter of the bacteria-inhibition zone, Candida mycoderma 6 h (Candida mycoderma; [4]): ++ (9-12 mm: ++) |
| CC1OC(OC2/C=C/C=C/C=C/C=C/CC/C=C/C=C/C(C)[C@@H](O)[C@@H](C)[C@H](C)OC(=O)CC(O)CC(O)CC(O)CCC(O)C(O)C[C@]3(O)CC(O)C(C(=O)O)C(C2)O3)C(O)C(N)C1O (stereo partly shown) [mycostatin, reference compound] | – | + (7-9 mm: +) | – | + (7-9 mm: +) | – | + (7-9 mm: +) | – | + (7-9 mm: +) | – | – | – | – | – | – | – | – | – | – | – | zone of inhibition at 5.6 µg/mL (Candida albicans; 0 h, 5.6 μg/ml after conversion, no serum, read-out: diameter of the bacteria-inhibition zone, Candida albicans 0 h): 7 to 9 mm; zone of inhibition at 5.6 µg/mL (Candida albicans; 6 h, 5.6 μg/ml after conversion, no serum, read-out: diameter of the bacteria-inhibition zone, Candida albicans 6 h): 7 to 9 mm; zone of inhibition at 5.6 µg/mL (Candida albicans; 24 h, 5.6 μg/ml after conversion, no serum, read-out: diameter of the bacteria-inhibition zone, Candida albicans 24 h): 7 to 9 mm; zone of inhibition at 5.6 µg/mL (Candida albicans; 48 h, 5.6 μg/ml after conversion, no serum, read-out: diameter of the bacteria-inhibition zone, Candida albicans 48 h): 7 to 9 mm; zone of inhibition at 5.6 µg/mL (Saccharomyces cerevisiae; 0 h, 5.6 μg/ml after conversion, no serum, read-out: diameter of the bacteria-inhibition zone, Saccharomyces cerevisiae 0 h): 14 to 16 mm; zone of inhibition at 5.6 µg/mL (Saccharomyces cerevisiae; 0 h, 5.6 μg/ml after conversion, serum added (40% defibered sheep serum), read-out: diameter of the bacteria-inhibition zone, Saccharomyces cerevisiae 0 h): 14 to 16 mm; zone of inhibition at 5.6 µg/mL (Saccharomyces cerevisiae; 6 h, 5.6 μg/ml after conversion, no serum, read-out: diameter of the bacteria-inhibition zone, Saccharomyces cerevisiae 6 h): 14 to 16 mm; zone of inhibition at 5.6 µg/mL (Saccharomyces cerevisiae; 6 h, 5.6 μg/ml after conversion, serum added (40% defibered sheep serum), read-out: diameter of the bacteria-inhibition zone, Saccharomyces cerevisiae 6 h): 14 to 16 mm; zone of inhibition at 5.6 µg/mL (Saccharomyces cerevisiae; 24 h, 5.6 μg/ml after conversion, no serum, read-out: diameter of the bacteria-inhibition zone, Saccharomyces cerevisiae 24 h): 14 to 16 mm; zone of inhibition at 5.6 µg/mL (Saccharomyces cerevisiae; 24 h, 5.6 μg/ml after conversion, serum added (40% defibered sheep serum), read-out: diameter of the bacteria-inhibition zone, Saccharomyces cerevisiae 24 h): 14 to 16 mm; zone of inhibition at 5.6 µg/mL (Saccharomyces cerevisiae; 48 h, 5.6 μg/ml after conversion, no serum, read-out: diameter of the bacteria-inhibition zone, Saccharomyces cerevisiae 48 h): 14 to 16 mm; zone of inhibition at 5.6 µg/mL (Saccharomyces cerevisiae; 48 h, 5.6 μg/ml after conversion, serum added (40% defibered sheep serum), read-out: diameter of the bacteria-inhibition zone, Saccharomyces cerevisiae 48 h): 14 to 16 mm; zone of inhibition at 5.6 µg/mL (Candida mycoderma; 0 h, 5.6 μg/ml after conversion, no serum, read-out: diameter of the bacteria-inhibition zone, Candida mycoderma 0 h): 12 to 14 mm; zone of inhibition at 5.6 µg/mL (Candida mycoderma; 6 h, 5.6 μg/ml after conversion, no serum, read-out: diameter of the bacteria-inhibition zone, Candida mycoderma 6 h): 12 to 14 mm; zone of inhibition at 5.6 µg/mL (Candida mycoderma; 24 h, 5.6 μg/ml after conversion, no serum, read-out: diameter of the bacteria-inhibition zone, Candida mycoderma 24 h): 12 to 14 mm; zone of inhibition at 5.6 µg/mL (Candida mycoderma; 48 h, 5.6 μg/ml after conversion, no serum, read-out: diameter of the bacteria-inhibition zone, Candida mycoderma 48 h): 12 to 14 mm |
